Data as given in PubChem BioAssay (NCI).
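Assay format: 96-well plates, 48-hour exposure. The concentration for 50% growth inhibition is given as GI50. TGI is the concentration that stops growth completely.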

Tests used:
Experiment in all cases: NCI-60 cell line screen, 48 h
[1] = system: HCT-116 colon
[2] = system: HL-60(TB) leukemia
[3] = system: PC-3 prostate
[4] = system: K-562 leukemia
[5] = system: UO-31 renal
[6] = system: DU-145 prostate
[7] = system: LOX IMVI melanoma
[8] = system: T-47D breast
[9] = system: NCI-H522 lung
[10] = system: SW-620 colon
[11] = system: IGROV1 ovarian
[12] = system: M14 melanoma
[13] = system: HOP-62 NSCLC
[14] = system: BT-549 breast
[15] = system: A498 renal
[16] = system: U251 CNS
[17] = system: NCI-H460 lung
[18] = system: NCI-H226 lung
[19] = system: SF-539 CNS
[20] = system: OVCAR-8 ovarian
[21] = system: KM12 colon
[22] = system: RPMI-8226 leukemia
[23] = system: TK-10 renal
[24] = system: HOP-92 NSCLC
[25] = system: COLO 205 colon
[26] = system: MCF7 breast
[27] = system: SK-OV-3 ovarian
[28] = system: SNB-75 CNS
[29] = system: SK-MEL-5 melanoma
[30] = system: A549 NSCLC
[31] = system: MDA-MB-435
[32] = system: HS 578T breast
[33] = system: SN12C renal
[34] = system: HCT-15 colon
[35] = system: UACC-257 melanoma
[36] = system: SF-268 CNS
[37] = system: SK-MEL-28 melanoma
[38] = system: CAKI-1 renal
[39] = system: OVCAR-4 ovarian
[40] = system: NCI/ADR-RES ovarian
[41] = system: SF-295 CNS
[42] = system: UACC-62 melanoma
[43] = system: MALME-3M melanoma
[44] = system: RXF 393 renal
[45] = system: SNB-19 CNS
[46] = system: MOLT-4 leukemia
[47] = system: OVCAR-5 ovarian
[48] = system: OVCAR-3 ovarian
[49] = system: HT29 colon
[50] = system: SR leukemia
[51] = system: MDA-MB-231 breast
[52] = system: HCC-2998 colon
[53] = system: EKVX NSCLC
[54] = system: ACHN renal
[55] = system: SK-MEL-2 melanoma
[56] = system: 786-0 renal

Compound: CCOC(=O)Cc1csc(NC(=O)C(OC(=O)c2ccc(N)cc2)c2ccccc2)n1 (configuration not stated)
- GI50 [1]: 30.8 µM
- TGI [1]: > 100 µM
- GI50 [2]: 18.4 µM
- TGI [2]: 92.5 µM
- GI50 [3]: 50.7 µM
- TGI [3]: > 100 µM
- GI50 [4]: 31.6 µM
- TGI [4]: > 100 µM
- GI50 [5]: 54.4 µM
- TGI [5]: > 100 µM
- GI50 [6]: 48.3 µM
- TGI [6]: > 100 µM
- GI50 [7]: 41.7 µM
- TGI [7]: > 100 µM
- GI50 [8]: 55.2 µM
- TGI [8]: > 100 µM
- GI50 [9]: 43 µM
- TGI [9]: > 100 µM
- GI50 [10]: 49.5 µM
- TGI [10]: > 100 µM
- GI50 [11]: 52.8 µM
- TGI [11]: > 100 µM
- GI50 [12]: 22.6 µM
- TGI [12]: 62.5 µM
- GI50 [13]: 52 µM
- TGI [13]: > 100 µM
- GI50 [14]: 40.3 µM
- TGI [14]: > 100 µM
- GI50 [15]: 72.1 µM
- TGI [15]: > 100 µM
- GI50 [16]: 45.5 µM
- TGI [16]: > 100 µM
- GI50 [17]: 32.7 µM
- TGI [17]: > 100 µM
- GI50 [18]: 60 µM
- TGI [18]: > 100 µM
- GI50 [19]: 30.6 µM
- TGI [19]: 87.4 µM
- GI50 [20]: 73.6 µM
- TGI [20]: > 100 µM
- GI50 [21]: 37.5 µM
- TGI [21]: > 100 µM
- GI50 [22]: 63.9 µM
- TGI [22]: > 100 µM
- GI50 [23]: 56.6 µM
- TGI [23]: > 100 µM
- GI50 [24]: 62 µM
- TGI [24]: > 100 µM
- GI50 [25]: 46.2 µM
- TGI [25]: > 100 µM
- GI50 [26]: 32.3 µM
- TGI [26]: > 100 µM
- GI50 [27]: 46.7 µM
- TGI [27]: > 100 µM
- GI50 [28]: 45.9 µM
- TGI [28]: > 100 µM
- GI50 [29]: 18.9 µM
- TGI [29]: 39.1 µM
- GI50 [30]: 51.5 µM
- TGI [30]: > 100 µM
- GI50 [31]: 31.1 µM
- TGI [31]: > 100 µM
- GI50 [32]: 80.9 µM
- TGI [32]: > 100 µM
- GI50 [33]: 46.6 µM
- TGI [33]: > 100 µM
- GI50 [34]: 43.5 µM
- TGI [34]: > 100 µM
- GI50 [35]: 40.5 µM
- TGI [35]: > 100 µM
- GI50 [36]: 35.5 µM
- TGI [36]: > 100 µM
- GI50 [37]: 30.9 µM
- TGI [37]: 98 µM
- GI50 [38]: 39.6 µM
- TGI [38]: > 100 µM
- GI50 [39]: 32.7 µM
- TGI [39]: > 100 µM
- GI50 [40]: 43.5 µM
- TGI [40]: > 100 µM
- GI50 [41]: 42.2 µM
- TGI [41]: > 100 µM
- GI50 [42]: 25.9 µM
- TGI [42]: 65.6 µM
- GI50 [43]: 44.2 µM
- TGI [43]: > 100 µM
- GI50 [44]: 66.4 µM
- TGI [44]: > 100 µM
- GI50 [45]: 53 µM
- TGI [45]: > 100 µM
- GI50 [46]: 24.8 µM
- TGI [46]: > 100 µM
- GI50 [47]: > 100 µM
- TGI [47]: > 100 µM
- GI50 [48]: 20.5 µM
- TGI [48]: 45.3 µM
- GI50 [49]: 39.9 µM
- TGI [49]: > 100 µM
- GI50 [50]: 21.2 µM
- TGI [50]: > 100 µM
- GI50 [51]: 31.6 µM
- TGI [51]: 97.1 µM
- GI50 [52]: 60 µM
- TGI [52]: > 100 µM
- GI50 [53]: > 100 µM
- TGI [53]: > 100 µM
- GI50 [54]: 44.9 µM
- TGI [54]: > 100 µM
- GI50 [55]: 40.2 µM
- TGI [55]: > 100 µM
- GI50 [56]: 48.6 µM
- TGI [56]: > 100 µM
